# Reference: ChEMBL document CHEMBL5050861 (2021)
# What was measured:
# [1] = Inhibition of recombinant mouse GALK1 using ATP as substrate incubated for 1 hr and measured by Kinase-Glo assay; conditions: read-out: IC50
# [2] = Inhibition of human GALK1 K252A/E253A double mutant; conditions: read-out: IC50
# Homo sapiens = organism: Homo sapiens; assay: Inhibition of human GALK1 K252A/E253A double mutant relative to control; design: concentration or dose not given beside the values; conditions: concentration not given here
# [3] = Stability of compound in rat microsomes assessed as half-life; format: ADME, Microsome
# [4] = Permeability of compound by PAMPA assay; format: ADME; conditions: for Papp: read-out: permeability
# [5] = Kinetic aqueous solubility of the compound; format: physicochemical; conditions: buffer; read-out: Kinetic_solubility
Compound,IC50 [1] [µM],IC50 [2] [µM],inhibition (Homo sapiens) [%],half-life [3] [min],Papp [4] [×10⁻⁶ cm/s],solubility kinetic [5] [µg/mL],permeability [4]
CC1=C(C(=O)Nc2cc(C(=O)O)ccn2)C(c2ccccc2Cl)N=C(Nc2nc3ccc(C)cc3o2)N1 (stereo not given),17.2,6.9,100,> 30,< 1,34.4,
CC1=C(C(=O)Nc2cc(C(=O)O)ccn2)C(c2ccccc2Cl)N=C(Nc2nc3c(F)cccc3o2)N1 (stereo not given),21.7,3.1,94,> 30,> 100,< 10000,
CC1=C(C(=O)Nc2ncc(C(=O)O)s2)C(c2ccccc2Cl)N=C(Nc2nc3ccccc3o2)N1 (stereo not given),,1.7,99,> 30,< 1,> 75,
CC1=C(C(=O)Nc2cc(C(=O)O)ccn2)C(c2ccccc2Cl)N=C(Nc2nc3c(Cl)cccc3o2)N1 (stereo not given),13.7,5.8,85,> 30,< 1.3,< 1,
CC1=C(C(=O)Nc2nnc(C)s2)C(c2ccccc2Cl)N=C(Nc2nc3ccccc3o2)N1 (stereo not given),10.7,3.9,95,> 30,,< 1,
COc1cccc(C2N=C(Nc3nc4ccc(F)cc4o3)NC(C)=C2C(=O)Nc2cc(C(=O)O)ccn2)c1Cl (stereo not given),19.3,5.4,100,> 30,< 1,> 81,
CC1=C(C(=O)Nc2cc(C(=O)O)ccn2)C(c2ccccc2Cl)N=C(Nc2nc3cccc(C)c3o2)N1 (stereo not given),6.85,0.365,100,> 30,< 10,> 76,
CC1=C(C(=O)NCc2cnn(C)c2)C(c2ccc(C)cc2Cl)N=C(Nc2nc3cccc(N)c3o2)N1 (stereo not given),2.17,0.047,,14.1,,4.47,25.28 10^-6 cm/s
CC1=C(C(=O)Nc2cc(C(=O)O)ccn2)C(c2ccc(F)cc2Cl)N=C(Nc2nc3ccc(F)cc3o2)N1 (stereo not given),4.32,0.258,100,> 30,< 1,40.6,
CC1=C(C(=O)NCc2cn(C)cn2)C(c2ccccc2Cl)N=C(Nc2nc3ccccc3o2)N1 (racemic),7.69,0.77,90,14.6,,26.6,
CC1=C(C(=O)Nc2ccc(C(=O)O)cc2)C(c2ccccc2Cl)N=C(Nc2nc3ccccc3o2)N1 (stereo not given),6.11,1.4,100,> 30,,< 1,
CC1=C(C(=O)Nc2nncs2)C(c2ccccc2Cl)N=C(Nc2nc3ccccc3o2)N1 (stereo not given),7.69,3.4,96,> 30,,< 1,
CC1=C(C(=O)NCc2cncs2)C(c2ccccc2Cl)N=C(Nc2nc3ccccc3o2)N1 (stereo not given),12.2,1.2,84,6.43,,< 1,
CC1=C(C(=O)NCc2cncn2C)C(c2ccccc2Cl)N=C(Nc2nc3ccccc3o2)N1 (stereo not given),6.85,1.4,98,8.87,,42,
CC1=C(C(=O)Nc2cc(C(=O)O)ccn2)C(c2ccc(C)cc2Cl)N=C(Nc2nc3ccc(F)cc3o2)N1 (racemic),3.06,0.136,100,> 30,,2.8,
CC1=C(C(=O)Nc2cc(C(=O)O)ccn2)C(c2ccccc2Cl)N=C(Nc2nc3ccccc3o2)N1 (racemic),6.85,0.97,88,> 30,,> 74,
CC1=C(C(=O)Nc2ccc(C#N)cn2)C(c2ccccc2Cl)N=C(Nc2nc3ccc(F)cc3o2)N1 (stereo not given),13.7,,,> 30,< 7.8,< 1,
